Laboratory results from PMC5708805, “Novel molecular imaging ligands targeting matrix metalloproteinases 2 and 9 for imaging of unstable atherosclerotic plaques” (PLoS ONE, 2017).

Legend:
MMP1 = molecular target: T1, MMP1 (Homo sapiens, UniProt P03956); experiment: In vitro fluorometric MMP inhibition assay (SensoLyte 520 MMP-1); format: biochemical; details: mean ± SD of three independent experiments in duplicate
T1 construct: purchased AnaSpec, San Jose, USA
T1 sequence (P03956 100-469): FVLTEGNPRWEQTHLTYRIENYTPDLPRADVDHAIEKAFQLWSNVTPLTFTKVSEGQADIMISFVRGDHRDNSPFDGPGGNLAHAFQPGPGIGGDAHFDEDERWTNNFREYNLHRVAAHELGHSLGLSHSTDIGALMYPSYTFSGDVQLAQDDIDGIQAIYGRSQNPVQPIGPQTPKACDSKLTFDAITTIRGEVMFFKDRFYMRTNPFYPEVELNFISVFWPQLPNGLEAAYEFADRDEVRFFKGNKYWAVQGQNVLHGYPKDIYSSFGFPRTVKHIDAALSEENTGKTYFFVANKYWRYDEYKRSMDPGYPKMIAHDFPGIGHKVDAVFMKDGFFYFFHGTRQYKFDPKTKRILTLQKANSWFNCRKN
Experimental: (§1) The inhibitory potency and selective binding of MMP-ligands was investigated by examining their capacity to block MMP1, MMP2 and MMP9 activity, using in vitro fluorometric assays (SensoLyte^TM 520 MMP-1, SensoLyte^TM 520 MMP-2, SensoLyte^TM 520 MMP-9; AnaSpec, San Jose, USA). Assay buffer was warmed to 37°C and used to dilute the reference inhibitor N-isobutyl-N-(4-methoxyphenylsulfonyl)glycyl hydoxamic acid (NNGH 1:100), calibration standard (1:50), substrate and enzyme (1:60). Components were loaded into a 96-well plate. MMP ligands 10a-d were also aliquoted to the respective 96-well plate at varying concentrations (10pM, 100pM, 1nM, 10nM, 100nM, 1μM, 10 μM and 100 μM), followed by incubation at 37°C for 30 minutes. Reactions were initiated by addition of the substrate to the respective wells, after which fluorescence generated was measured using a microplate reader (Synergy HT Multi-detection Microplate Reader, BioTek, […]) continuously for 30 minutes at 60 second intervals. Data analysis was conducted using Sigma Plot and Microsoft Excel.

MMP2 = molecular target: T2, MMP2 (Homo sapiens, UniProt P08253); experiment: In vitro fluorometric MMP inhibition assay (SensoLyte 520 MMP-2); format: biochemical; details: for IC50: mean ± SD of three independent experiments in duplicate; for Selectivity MMP1/MMP2: ratio of IC50 values, MMP1 IC50 divided by MMP2 IC50
T2 construct: purchased AnaSpec, San Jose, USA
T2 sequence (P08253 110-660): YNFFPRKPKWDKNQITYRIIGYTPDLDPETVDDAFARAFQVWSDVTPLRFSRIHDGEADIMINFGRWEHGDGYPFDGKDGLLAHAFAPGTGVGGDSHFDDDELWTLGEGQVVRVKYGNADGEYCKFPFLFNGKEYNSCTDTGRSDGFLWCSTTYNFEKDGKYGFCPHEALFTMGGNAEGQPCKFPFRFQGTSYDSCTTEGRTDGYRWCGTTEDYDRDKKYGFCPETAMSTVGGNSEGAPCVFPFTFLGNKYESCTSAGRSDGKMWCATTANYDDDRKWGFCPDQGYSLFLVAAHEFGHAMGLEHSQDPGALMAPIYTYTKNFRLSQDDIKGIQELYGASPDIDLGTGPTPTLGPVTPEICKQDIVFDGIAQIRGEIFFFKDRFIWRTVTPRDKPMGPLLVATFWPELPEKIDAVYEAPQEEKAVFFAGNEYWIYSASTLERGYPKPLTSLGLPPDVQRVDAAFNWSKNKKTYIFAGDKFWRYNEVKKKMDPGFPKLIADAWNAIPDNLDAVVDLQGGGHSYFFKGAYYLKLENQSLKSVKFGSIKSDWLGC
Experimental: as §1

MMP9 = molecular target: T3, MMP9 (Homo sapiens, UniProt P14780); experiment: In vitro fluorometric MMP inhibition assay (SensoLyte 520 MMP-9); format: biochemical; details: for IC50: mean ± SD of three independent experiments in duplicate; for Selectivity MMP1/MMP9: ratio of IC50 values, MMP1 IC50 divided by MMP9 IC50
T3 construct: purchased AnaSpec, San Jose, USA
T3 sequence (P14780 94-707, species assumed): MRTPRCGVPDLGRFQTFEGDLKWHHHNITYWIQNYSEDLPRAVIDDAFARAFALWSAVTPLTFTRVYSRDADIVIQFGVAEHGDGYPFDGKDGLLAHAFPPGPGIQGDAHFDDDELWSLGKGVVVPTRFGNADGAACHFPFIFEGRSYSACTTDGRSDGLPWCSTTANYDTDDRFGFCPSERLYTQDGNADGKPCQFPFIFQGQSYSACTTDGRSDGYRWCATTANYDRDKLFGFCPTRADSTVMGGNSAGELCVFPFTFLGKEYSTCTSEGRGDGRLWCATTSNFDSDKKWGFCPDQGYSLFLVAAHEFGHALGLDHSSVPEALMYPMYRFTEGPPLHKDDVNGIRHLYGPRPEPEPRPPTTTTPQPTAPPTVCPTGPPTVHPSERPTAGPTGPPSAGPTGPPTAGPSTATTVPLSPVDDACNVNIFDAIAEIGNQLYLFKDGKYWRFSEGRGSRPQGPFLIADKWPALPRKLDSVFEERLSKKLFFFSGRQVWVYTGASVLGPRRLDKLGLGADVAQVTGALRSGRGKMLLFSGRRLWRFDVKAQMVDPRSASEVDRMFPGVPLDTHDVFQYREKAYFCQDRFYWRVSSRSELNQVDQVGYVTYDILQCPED
Experimental: as §1

[1] = In vivo biodistribution after intravenous injection in healthy mice; details: healthy C57BL/6 mice
Experimental: All experiments were approved by the institutional committee for animal experiments at the Academic Medical Center. C57BL/6 female mice (14–16 week) were purchased from Harlan and housed in the animal care facility at the Academic Medical Center. Animals were anesthetized using 126 mg ketamine, 100 μg dexdomitor, 500 μg atropine, 7.5 mL NaCl 0.9% of which 0.015 mL/g body weight was administered by intraperitoneal injection. In order to investigate the in vivo biodistribution of MMP ligand [^123I]10c, 4 MBq was administered intravenously in the tail vein and allowed to circulate for either 5, 15, 30, 60 minutes or 2, 3, 4, 6 and 24 hours (n = 3–4 animals for each time point). At the end of each circulation time, animals were sacrificed by bleeding through phosphate buffered saline solution (PBS) perfusion. After the animals were sacrificed, whole blood was collected by cardiac puncture, and selected organs were excised (heart, lungs, liver and kidneys). The organs were weighed and radioactivity was measured using a scintillation counter (TRT-CARB 2000CA, Perkin Elmer 1987). The measured radioactivity was expressed as the percentage of the injected dose per gram of tissue per gram of body weight (% ID/g/g).
The biodistribution of [^123I]10c was investigated following intravenous infusion of 4 MBq in healthy C57BL/6 mice. Following the bolus injection, the compound was allowed to circulate for 5, 15, 30, 60 minutes, 2, 3, 4, 6 and 24 hours. […] In the blood, stabilization of the compound was reached after at least 1 hour of circulation.
Fig 5 Biodistribution of [^123I]10c following intravenous infusion in healthy mice (n = 3–4 /group). Injected dose (ID) of radioactivity was measured in fat (A), muscle (B), liver (C), kidney (D), spleen (E), blood (F), heart (G) and lung (H) at varying time-points after injection. Values shown are mean ± SEM.

[2] = test system: atherosclerotic lesions containing MMP2 and MMP9; experiment: In vivo binding to atherosclerotic plaques (ex vivo storage phosphor imaging of aortic arch, MMP2/9 immunohistochemistry); set-up: species or system ApoE-/- mice; details: 40 MBq i.v.
Experimental: To investigate selective binding of [^123I]10c to MMP2/9 found in atherosclerotic lesions, we examined the distribution of the [^123I]10c in 8–10 week old female ApoE-/- mice (n = 5, Charles River) that were fed a high fat Western diet (15% fat, 0.25% cholesterol; Arie Blok Diervoeding, Netherlands) for 4 weeks. These animals subsequently developed atherosclerotic plaques. 40 MBq of [^123I]10c were administered by intravenous injection in the tail vein and allowed to circulate for […]. Animals were euthanized by bleeding via PBS infusion. The aortic arch was excised and 10 μm serial sections were made. Aortic arch sections were placed on a phosphor imaging plate (Fuji) and the amount of radioactivity was measured using a storage phosphor imaging apparatus (Typhoon Trio; GE Healthcare Life Sciences). Sections were then stained with hematoxylin/eosin staining, or used for MMP2 and MMP9 detection. Prior to incubation with monoclonal goat-anti-mouse MMP2 (R&D Systems) and rabbit-anti-mouse MMP9 (Abcam), the sections were heated to improve antigen retrieval. Rabbit-anti-goat secondary antibodies (DAKO) were utilized on the MMP2 sections. Thereafter, all sections were probed with the PowerVision anti-rabbit polymer, conjugated to horseradish peroxidase (Immunologic), to reveal positive primary antibody binding by means of chromogen conversion of 3,3’-diaminobenzidine (DAB), followed by nuclear counterstaining with hematoxylin. Histological sections were imaged with a bright-field microscope. […]
To validate the efficacy of [^123I]10c as an appropriate tracer for detection of atherosclerotic plaques, we examined the in vivo uptake of this ligand in ApoE-/- mice that were fed a high-fat diet. […] 40 MBq of [^123I]10c was administered intravenously and allowed to circulate for 3 hours, after which the animals were euthanized and the aortic arch was excised for measuring radioactivity by storage phosphor imaging.
Fig 6 Binding of [^123I]10c to atherosclerotic lesions containing MMP2 and MMP9. […] The region with highest apparent radioactivity has been outlined. […]

| Structure (SMILES) | IC50 (MMP1) | IC50 (MMP2) | Selectivity MMP1/MMP2 (MMP2) | IC50 (MMP9) | Selectivity MMP1/MMP9 (MMP9) | circulation time until stabilization of the compound in blood ([1]; 4 MBq i.v. bolus) | tissues with highest radioactivity (biodistribution) ([1]; 4 MBq i.v., 5 min to 24 h) | accumulation in fat (biodistribution) ([1]; 4 MBq i.v., 5 min to 24 h, relative to other tissues) | tracer uptake in diseased regions of the vessel wall ([2]; ApoE-/- mice on high-fat diet, storage phosphor imaging) | uptake in atherosclerotic lesions of the aortic arch ([2]; ApoE-/- mice on high-fat diet, storage phosphor imaging of excised aortic arch) | relation of tracer uptake to MMP2 and MMP9 immunohistochemical staining in lesions ([2]; ApoE-/- mice, consecutive aortic arch sections) |
| --- | --- | --- | --- | --- | --- | --- | --- | --- | --- | --- | --- |
| O=C(O)CN(CC(=O)NO)S(=O)(=O)c1ccccc1 [Compound 4a, 2-(N-(2(hydroxyamino)-2-oxoethyl)phenylsulfonamido) acetic acid] | 51 ± 0.1 nM | 39 ± 0.16 nM | 1.31 | 14 ± 1.05 nM | 3.64 |  |  |  |  |  |  |
| O=C(O)CN(CC(=O)NO)S(=O)(=O)c1ccc(I)cc1 [Compound 4c, 2-(4-Iodo-N-(2-hydroxyamino)-2-oxoethyl) phenylsufonamido acetic acid] | 59 ± 0.17 nM | 27 ± 1 nM | 2.19 | 11 ± 1.14 nM | 5.36 |  |  |  |  |  |  |
| O=C(O)CN(CC(=O)NO)S(=O)(=O)c1ccc(Oc2ccc([123I])cc2)cc1 [[^123I]10c, ([4-(4-[^123I]Iodophenoxy)benzenesulphonyl]hydroxycarbamoylmethylamino) acetic acid] |  |  |  |  |  | at least 1 hour | highest in the liver and blood | lowest | relatively high | detectable | co-localizing |
| O=C(O)CN(CC(=O)NO)S(=O)(=O)c1ccc(F)cc1 [Compound 4b, 2-(4-fluoro-N-(2-hydroxyamino)-2oxoethyl)phenylsufonamido acetic acid] | 75 ± 0.15 nM | 12 ± 0.17 nM | 6.25 | 21 ± 0.19 nM | 3.57 |  |  |  |  |  |  |
| O=C(O)CN(CC(=O)NO)S(=O)(=O)c1ccc(Br)cc1 [Compound 4d, 2-(4-bromo-N-(2-hydroxyamino)-2-oxoethyl) phenylsufonamido acetic acid] | 63 ± 0.13 nM | 19 ± 0.19 nM | 3.32 | 23 ± 0.21 nM | 2.74 |  |  |  |  |  |  |
| O=C(O)CN(CC(=O)NO)S(=O)(=O)c1ccc(Cl)cc1 [Compound 4e, 2-(4-chloro-N-(2-hydroxyamino)-2-oxoethyl)phenylsufonamido acetic acid] | 61 ± 0.11 nM | 41 ± 0.19 nM | 1.49 | 18 ± 0.16 nM | 3.39 |  |  |  |  |  |  |

More lines, main results first:

| IC50 (MMP1) | IC50 (MMP2) | Selectivity MMP1/MMP2 (MMP2) | IC50 (MMP9) | Selectivity MMP1/MMP9 (MMP9) | circulation time until stabilization of the compound in blood ([1]; 4 MBq i.v. bolus) | tissues with highest radioactivity (biodistribution) ([1]; 4 MBq i.v., 5 min to 24 h) | accumulation in fat (biodistribution) ([1]; 4 MBq i.v., 5 min to 24 h, relative to other tissues) | Structure (SMILES) | tracer uptake in diseased regions of the vessel wall ([2]; ApoE-/- mice on high-fat diet, storage phosphor imaging) | uptake in atherosclerotic lesions of the aortic arch ([2]; ApoE-/- mice on high-fat diet, storage phosphor imaging of excised aortic arch) | relation of tracer uptake to MMP2 and MMP9 immunohistochemical staining in lesions ([2]; ApoE-/- mice, consecutive aortic arch sections) |
| --- | --- | --- | --- | --- | --- | --- | --- | --- | --- | --- | --- |
|  |  | 3.60 x 10^4 |  | 1.74 x 10^4 |  |  |  | O=C(O)CN(CC(=O)NO)S(=O)(=O)c1ccc(Oc2ccc(F)cc2)cc1 [Compound 10b] |  |  |  |
|  |  | 884 |  | 387 |  |  |  | O=C(O)CN(CC(=O)NO)S(=O)(=O)c1ccc(Oc2ccccc2)cc1 [Compound 10a, ([4-Phenoxy-benzenesulphonyl]-hydroxycarbamoylmethyl-amino) acetic acid] |  |  |  |
| 910 ± 560 nM | 0.87 ± 0.4 nM | 1.05 x 10^3 | 1.95 ± 1.1 nM | 467 |  |  |  | O=C(O)CN(CC(=O)NO)S(=O)(=O)c1ccc(Oc2ccc(I)cc2)cc1 [Compound 10c, ([4-(4-Iodo-phenoxy)-benzenesulphonyl]-hydroxycarbamoylmethyl-amino) acetic acid] |  |  |  |
| 1320 ± 790 nM | 7.64 ± 1.43 nM | 173 | 1.61 ± 1.41 nM | 820 |  |  |  | O=C(O)CN(CC(=O)NO)S(=O)(=O)c1ccc(Oc2ccc(Br)cc2)cc1 [Compound 10d, ([4-(4-Bromo-phenoxy)-benzenesulphonyl]-hydroxycarbamoylmethyl-amino) acetic acid] |  |  |  |
